# pIC50, pKd: −log10 of the molar value. Where “and” joins values, the source holds several entries; their conditions need not be identical. Equal entries are not always repeated. Where two headings read alike, the source gives them in different places.
# Columns and labels:
# CIT = biological target: T1, CIT (Homo sapiens, UniProt O14578); assay: KdElect binding affinity assay; conditions: for pKd: read-out: CIT Experimental Kd
# T1 construct: purchased Eurofins (DiscoverX)
# Description: (§1) Off-target kinase inhibition was assessed using the DiscoverX scanMAX (Eurofins) panel at 1 µM compound concentration. Binding affinities of CIT, ROCK1 and ROCK2 were evaluated using the KdElect assay (Eurofins).
# PfPKG = PfPKG (Plasmodium falciparum, UniProt Q8I719); assay: PfPKG enzyme inhibition; format: biochemical
# ROCK1 = biological target: T2, ROCK1 (Homo sapiens, UniProt Q13464); assay: KdElect binding affinity assay
# T2 construct: purchased Eurofins (DiscoverX)
# Description: as §1
# ROCK2 = biological target: T3, ROCK2 (Homo sapiens, UniProt O75116); assay: KdElect binding affinity assay
# T3 construct: purchased Eurofins (DiscoverX)
# Description: as §1
# [1] = Cellular cytotoxicity, hepatocyte nuclear counts; format: cell-based, simian; conditions: simian, primary cryopreserved simian hepatocytes (lot OQB); cellular cytotoxicity
# Description: (§2) Primary cryopreserved hepatocytes were selected based on host-parasite compatibility: primary simian hepatocytes (lot OQB) for P. cynomolgi and human hepatocytes (lot BGW) for P. falciparum (BioIVT Inc., Baltimore, MD, USA). Cells were thawed according to the manufacturer’s protocol and seeded into 384-well collagen-coated assay plates (Greiner Bio-One, Monroe, NC, USA) using InVitroGro CP plating medium (BioIVT). Seeding densities were optimized for uniform monolayer formation, and hepatocytes were allowed to adhere for 24–48 hours before infection. Sporozoites were added at a 1:1.1 hepatocyte-to-sporozoite ratio within 48 hours post-seeding. Automated robotic systems were used for media changes and compound additions to ensure assay consistency and minimize variability associated with manual pipetting.
# (§3) Test compounds (PfPKG inhibitors) and assay drug controls (KDU-691 and tafenoquine) were solubilized in DMSO or PBS and serially diluted into 8- or 12-point, 2- or 3-fold series, achieving final assay concentrations ranging from 20 µM to 0.019 µM. Compounds were introduced using a calibrated pin tool controlled by robotic arms (V&P Scientific), ensuring a 1:1000 dilution into assay wells. Media were replenished daily with fresh drug-containing HCM. Compounds were added 1-hour post-infection (p.i.) (day 0) and administered daily for 3 days. Cells were fixed on day 6 p.i. of P. falciparum culture and day 8 for P. cynomolgi infected culture, coinciding with liver stage schizont maturation.
# (§4) High-content imaging was performed using the Operetta CLS system (Revvity) and image analysis was performed with Harmony software version 4.9 (Revvity, Waltham, MA, USA). Images were acquired at 10x or 20x magnification using DAPI and TRITC fluorescence channels. Following the established protocol, parasites were classified as hypnozoites or schizonts based on fluorescence intensity (mean and maximum), morphological features (cell roundness and size), and segmentation criteria. Hepatocyte nuclei were identified using Hoechst 33342 staining. Background signal was captured in uninfected, stained wells and subjected to the same parasite detection algorithm. Estimate erroneous parasite counts were then subtracted from infected well counts. Hepatocyte viability was determined by quantifying nuclear counts per well using Hoechst stain intensity thresholds. […] An in-house built Python-based image analysis script identified parasite objects using predefined fluorescence intensity thresholds. […] Parasite size was quantified by calculating the average object area (µm²) of validated parasite structures per well. […] Dose-response inhibition and IC50 were calculated relative to in-plate negative controls (DMSO-treated wells). […]
# P. cynomolgi hypnozoite = assay: Hypnozoite formation in primary simian hepatocytes, high-content imaging; format: cell-based, Plasmodium cynomolgi
# Description: (§5) Liver stage antimalarial activity was evaluated using sporozoites from P. falciparum (NF54 strain) and P. cynomolgi bastianellii (B strain). P. falciparum-infected Anopheles stephensi mosquitoes were reared at WRAIR, while P. cynomolgi-infected Anopheles dirus mosquitoes were obtained from the Armed Forces Research Institute of Medical Sciences (AFRIMS), Thailand. Sporozoites were isolated by dissecting salivary glands under sterile conditions, followed by gentle mechanical disruption. Freshly isolated sporozoites were immediately used for hepatocyte infection.
# as §2
# as §3, with “Compounds were added 1-hour post-infection (p.i.) (day 0) and administered daily for 3 days. Cells were fixed on day 6 p.i. of P. falciparum culture and day 8 for P. cynomolgi infected culture, coinciding with liver stage schizont maturation.” left out
# (§6) Cells were fixed using 4% paraformaldehyde for 20 minutes at room temperature, followed by three PBS washes, and stored at 4°C until further processing. Parasite detection was performed using species-specific primary antibodies, with P. cynomolgi parasites labeled using a mouse monoclonal anti-Plasmodium GAPDH antibody (1.6 μg/mL, European Malaria Reagent Repository) and P. falciparum parasites detected using a rabbit polyclonal anti-PfHSP70 antibody (1:70 dilution, LS Bio, USA). […]
# (§7) High-content imaging was performed using the Operetta CLS system (Revvity) and image analysis was performed with Harmony software version 4.9 (Revvity, Waltham, MA, USA). Images were acquired at 10x or 20x magnification using DAPI and TRITC fluorescence channels. Following the established protocol, parasites were classified as hypnozoites or schizonts based on fluorescence intensity (mean and maximum), morphological features (cell roundness and size), and segmentation criteria. […]
# P. cynomolgi schizont = assay: Schizont formation in primary simian hepatocytes, high-content imaging; format: cell-based, Plasmodium cynomolgi
# Description: as §5, §2
# as §3, with “Compounds were added 1-hour post-infection (p.i.) (day 0) and administered daily for 3 days. Cells were fixed on day 6 p.i. of P. falciparum culture and day 8 for P. cynomolgi infected culture, coinciding with liver stage schizont maturation.” left out
# as §6, §7
# [2] = tested on: primary simian hepatocytes; assay: Cellular cytotoxicity, hepatocyte nuclear counts; format: cell-based
# Description: as §2, §3, §4
# [3] = tested on: P. berghei sporozoites (PbLuc-GFP); assay: In vivo chemoprotective efficacy against sporozoite liver infection; parameters: species or system Plasmodium berghei in mice; conditions: Intravenous, 10 mg/kg x 3
# [4] = tested on: P. berghei sporozoites (PbLuc-GFP); assay: as above; parameters: species or system Plasmodium berghei in mice
# Description: In the first experiment, mice were administered three doses, intravenously (IV) or orally (PO), of compound (10 mg/kg) - two prior to sporozoite inoculation to block sporozoite invasion of hepatocytes and the third at 36 hpi to prevent egress of liver stages (Fig 3A). In vivo bioluminescent imaging (IVIS) of mice was utilized to detect and quantify relative parasitemia in the liver and flow cytometry was used to detect the appearance of blood stage parasites. Vehicle-treated mice were used as a negative control.
# In vivo chemoprotective efficacy was evaluated using luciferase-expressing P. berghei ANKA sporozoites. […] Liver stage parasite burden was measured 42–48 h p.i. by bioluminescence imaging (IVIS Spectrum). Photon flux from the liver region was quantified using Living Image software. All animal procedures were approved by the Rutgers Institutional Animal Care and Use Committee (IACUC).
# P. falciparum 3D7 = assay: Asexual blood stage growth inhibition, SYBR Green I, 72 h; format: cell-based; conditions: Plasmodium falciparum, mean (standard error) of 3 biological replicates
# Description: (§8) Asexual blood stage P. falciparum strains, including 3D7 and drug-resistant field isolates, were cultured using standard conditions in RPMI 1640 with 0.5% Albumax as described previously. EC₅₀ values were determined using a SYBR Green I fluorescence assay after 72 h of compound exposure. EC50 values were derived by nonlinear regression in GraphPad Prism version 10.
# P. falciparum K1 = assay: as above; format: cell-based; conditions: Plasmodium falciparum, mean (standard error) of 3 biological replicates
# Description: as §8
# P. falciparum 7G8 = assay: as above; format: cell-based; conditions: Plasmodium falciparum, mean (standard error) of 3 biological replicates
# Description: as §8
# P. falciparum Dd2-B2 = assay: as above; format: cell-based; conditions: Plasmodium falciparum, mean (standard error) of 3 biological replicates
# Description: as §8
# [5] = from IC50 ≈ Kd, ∆G = -RTln(Kd), 300K
# [6] = range over RUPB-8, -18, -34 and over ROCK1 and ROCK2
# [7] = Plasmodium cynomolgi, Hepatocyte
# T1 sequence (O14578 whole entry): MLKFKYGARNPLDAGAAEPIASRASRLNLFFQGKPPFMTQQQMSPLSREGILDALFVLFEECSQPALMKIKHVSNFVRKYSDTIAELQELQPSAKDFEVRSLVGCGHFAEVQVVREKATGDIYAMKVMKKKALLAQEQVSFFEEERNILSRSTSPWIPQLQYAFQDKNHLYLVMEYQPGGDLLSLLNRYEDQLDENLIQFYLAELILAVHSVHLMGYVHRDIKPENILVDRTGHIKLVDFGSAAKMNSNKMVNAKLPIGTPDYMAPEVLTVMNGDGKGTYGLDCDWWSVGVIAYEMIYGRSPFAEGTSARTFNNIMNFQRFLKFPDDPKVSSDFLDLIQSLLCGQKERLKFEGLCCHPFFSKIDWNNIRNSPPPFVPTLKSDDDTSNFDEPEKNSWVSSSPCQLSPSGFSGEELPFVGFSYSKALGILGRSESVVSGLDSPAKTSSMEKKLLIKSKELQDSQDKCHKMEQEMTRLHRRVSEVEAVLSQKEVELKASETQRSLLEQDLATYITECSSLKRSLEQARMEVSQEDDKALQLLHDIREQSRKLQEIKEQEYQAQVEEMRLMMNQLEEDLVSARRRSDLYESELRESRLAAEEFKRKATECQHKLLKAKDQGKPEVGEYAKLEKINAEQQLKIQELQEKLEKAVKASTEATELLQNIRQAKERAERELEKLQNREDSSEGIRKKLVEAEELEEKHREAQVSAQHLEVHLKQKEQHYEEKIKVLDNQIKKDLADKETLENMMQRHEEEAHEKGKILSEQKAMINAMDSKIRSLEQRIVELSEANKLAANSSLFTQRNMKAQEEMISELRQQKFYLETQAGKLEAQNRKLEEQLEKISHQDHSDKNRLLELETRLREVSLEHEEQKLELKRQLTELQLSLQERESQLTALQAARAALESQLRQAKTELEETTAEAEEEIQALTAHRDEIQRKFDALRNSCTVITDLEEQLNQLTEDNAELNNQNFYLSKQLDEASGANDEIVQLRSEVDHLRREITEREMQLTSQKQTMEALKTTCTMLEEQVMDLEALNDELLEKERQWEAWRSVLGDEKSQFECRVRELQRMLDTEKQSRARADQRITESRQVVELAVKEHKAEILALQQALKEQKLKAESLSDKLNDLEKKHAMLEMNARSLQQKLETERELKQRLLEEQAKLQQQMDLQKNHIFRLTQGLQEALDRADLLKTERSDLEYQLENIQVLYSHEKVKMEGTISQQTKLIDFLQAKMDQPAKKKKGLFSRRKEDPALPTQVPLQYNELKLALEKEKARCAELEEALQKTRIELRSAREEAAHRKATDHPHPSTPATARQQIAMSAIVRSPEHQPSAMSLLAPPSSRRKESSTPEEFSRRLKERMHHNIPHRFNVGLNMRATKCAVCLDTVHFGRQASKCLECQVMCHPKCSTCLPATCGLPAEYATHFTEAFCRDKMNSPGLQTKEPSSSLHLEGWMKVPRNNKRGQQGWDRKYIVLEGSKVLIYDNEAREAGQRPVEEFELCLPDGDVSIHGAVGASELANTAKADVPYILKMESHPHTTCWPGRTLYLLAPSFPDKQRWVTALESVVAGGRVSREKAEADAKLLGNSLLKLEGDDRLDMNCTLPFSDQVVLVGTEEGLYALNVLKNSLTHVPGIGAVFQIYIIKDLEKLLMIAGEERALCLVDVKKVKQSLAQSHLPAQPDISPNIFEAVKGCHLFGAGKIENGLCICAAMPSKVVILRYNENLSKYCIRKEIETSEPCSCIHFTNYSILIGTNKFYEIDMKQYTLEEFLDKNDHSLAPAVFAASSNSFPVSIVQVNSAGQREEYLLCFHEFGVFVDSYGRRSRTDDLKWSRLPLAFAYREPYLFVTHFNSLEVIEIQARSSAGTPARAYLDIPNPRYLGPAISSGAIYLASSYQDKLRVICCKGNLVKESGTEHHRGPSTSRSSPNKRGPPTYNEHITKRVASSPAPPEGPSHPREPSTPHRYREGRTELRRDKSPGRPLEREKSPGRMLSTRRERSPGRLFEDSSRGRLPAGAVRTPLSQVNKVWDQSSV
# T2 sequence (Q13464 whole entry): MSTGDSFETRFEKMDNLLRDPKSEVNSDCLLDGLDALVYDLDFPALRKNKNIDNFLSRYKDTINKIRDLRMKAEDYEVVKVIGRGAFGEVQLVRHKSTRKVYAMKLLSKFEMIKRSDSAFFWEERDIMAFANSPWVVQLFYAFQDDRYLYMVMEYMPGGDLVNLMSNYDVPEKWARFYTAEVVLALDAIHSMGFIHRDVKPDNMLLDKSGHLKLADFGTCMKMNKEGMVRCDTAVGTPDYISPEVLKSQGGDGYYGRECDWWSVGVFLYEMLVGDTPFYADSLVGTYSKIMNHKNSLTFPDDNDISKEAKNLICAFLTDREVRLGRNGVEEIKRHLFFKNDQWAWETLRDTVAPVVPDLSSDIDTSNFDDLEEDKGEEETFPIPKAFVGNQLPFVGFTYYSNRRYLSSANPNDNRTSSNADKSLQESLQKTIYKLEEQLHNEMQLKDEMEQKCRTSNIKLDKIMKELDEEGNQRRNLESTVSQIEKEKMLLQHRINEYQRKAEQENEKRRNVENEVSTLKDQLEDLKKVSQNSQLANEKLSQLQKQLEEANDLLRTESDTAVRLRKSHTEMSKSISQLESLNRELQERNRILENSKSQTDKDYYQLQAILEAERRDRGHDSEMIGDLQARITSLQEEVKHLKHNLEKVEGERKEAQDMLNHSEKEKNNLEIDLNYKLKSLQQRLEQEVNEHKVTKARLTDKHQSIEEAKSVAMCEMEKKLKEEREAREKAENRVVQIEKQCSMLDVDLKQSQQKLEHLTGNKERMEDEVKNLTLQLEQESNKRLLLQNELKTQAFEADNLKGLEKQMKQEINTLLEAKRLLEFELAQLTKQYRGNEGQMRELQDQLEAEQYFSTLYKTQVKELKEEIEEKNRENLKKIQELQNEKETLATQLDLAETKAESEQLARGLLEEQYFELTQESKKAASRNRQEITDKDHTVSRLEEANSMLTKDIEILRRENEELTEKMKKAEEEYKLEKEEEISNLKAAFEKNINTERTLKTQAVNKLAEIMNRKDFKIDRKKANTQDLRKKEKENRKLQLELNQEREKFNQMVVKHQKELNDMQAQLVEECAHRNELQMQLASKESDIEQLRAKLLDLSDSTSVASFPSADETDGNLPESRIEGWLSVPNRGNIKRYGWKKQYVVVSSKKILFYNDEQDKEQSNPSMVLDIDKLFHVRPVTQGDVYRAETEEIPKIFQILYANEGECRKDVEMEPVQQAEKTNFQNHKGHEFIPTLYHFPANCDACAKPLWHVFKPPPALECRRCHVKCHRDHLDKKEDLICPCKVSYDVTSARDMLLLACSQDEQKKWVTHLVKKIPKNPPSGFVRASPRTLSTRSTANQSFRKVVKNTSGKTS
# PfPKG, sequence (Q8I719 whole entry): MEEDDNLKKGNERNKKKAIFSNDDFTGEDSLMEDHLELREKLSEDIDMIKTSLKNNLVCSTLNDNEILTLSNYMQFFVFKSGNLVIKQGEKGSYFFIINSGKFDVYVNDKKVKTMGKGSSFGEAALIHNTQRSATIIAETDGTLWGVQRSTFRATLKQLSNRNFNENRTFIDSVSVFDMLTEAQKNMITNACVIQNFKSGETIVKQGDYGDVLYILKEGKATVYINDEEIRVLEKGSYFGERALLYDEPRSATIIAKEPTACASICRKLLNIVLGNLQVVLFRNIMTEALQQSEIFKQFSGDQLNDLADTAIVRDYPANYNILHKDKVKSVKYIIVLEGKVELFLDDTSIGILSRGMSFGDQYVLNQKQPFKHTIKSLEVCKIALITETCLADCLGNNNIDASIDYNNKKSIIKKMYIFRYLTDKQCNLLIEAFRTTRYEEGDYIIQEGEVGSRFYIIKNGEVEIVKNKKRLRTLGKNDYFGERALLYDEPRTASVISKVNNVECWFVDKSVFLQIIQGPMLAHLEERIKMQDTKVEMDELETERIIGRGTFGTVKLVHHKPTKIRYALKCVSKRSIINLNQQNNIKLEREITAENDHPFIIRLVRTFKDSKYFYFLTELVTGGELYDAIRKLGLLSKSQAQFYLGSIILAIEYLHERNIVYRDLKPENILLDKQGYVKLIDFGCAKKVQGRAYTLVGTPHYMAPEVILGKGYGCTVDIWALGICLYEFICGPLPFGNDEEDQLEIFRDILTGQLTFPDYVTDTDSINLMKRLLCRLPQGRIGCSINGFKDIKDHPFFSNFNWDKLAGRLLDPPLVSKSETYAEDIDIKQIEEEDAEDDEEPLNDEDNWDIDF
compound,measurement,setting,value
"CN1CCC(c2cc(-c3ccncc3)c(-c3ccc(F)c(C(C)(C)O)c3)[nH]2)CC1 [RUPB-69, 2-(2-Fluoro-5-(5-(1-methylpiperidin-4-yl)-3-(pyridin-4-yl)-1H-pyrrol-2-yl)phenyl)propan-2-ol]",Kd for CIT higher compared to RUPB-61,"CIT; range over RUPB-18, -34, -69",5–125 fold
same,pKd,CIT,6.68
same,improvement in PfPKG IC50 compared to RUPB-61,PfPKG,10 fold
same,PfPKG (ΔG),PfPKG; [5],-12.1 kcal/mol
same,PfPKG Experimental Binding (ΔG),PfPKG; [5],-12.1 kcal/mol
CN1CCC(c2cc(-c3ccncc3C#N)c(-c3ccc(F)cc3)[nH]2)CC1 [RUPB-8],Kd for ROCK1 higher compared to RUPB-61,ROCK1; [6],40–700 fold
same,pKd,ROCK1; read-out: ROCK1 Experimental Kd,6.11
same,ROCK1 Experimental Binding (ΔG),"ROCK1; ∆G = -RTln(Kd), 300K",-8.4 kcal/mol
same,pKd,CIT,7.92
same,Kd for ROCK2 higher compared to RUPB-61,ROCK2; [6],40–700 fold
same,pKd,ROCK2; read-out: ROCK2 Experimental Kd,5.96
"COc1cc(C)c2c(Oc3cccc(C(F)(F)F)c3)c(OC)cc(NC(C)CCCN)c2n1 (centres unmarked) [Tafenoquine, tafenoquine]",CC50 at 3 days,[1],3600 nM
same,pIC50,P. cynomolgi hypnozoite; [7],7.07
same,pIC50,P. cynomolgi schizont; [7],7.39
"CN1CCC(c2cc(-c3ccncc3)c(-c3ccc(F)cc3)[nH]2)CC1 [TSP, reference compound]",CC50,[2],8500 nM
same,No. of mice patent by D21/ No. of mice inoculated,[3],3/5
same,mice that did not show blood stage parasites for 3 weeks pi,"[4]; 3 intravenous doses, 10 mg/kg",2/5
same,mice displaying liver infection at 44 hpi,"[4]; IV, 10 mg/kg x 3, bioluminescent imaging",3/5
same,Prepatent period mean ± sd,"[4]; Intravenous, 10 mg/kg x 3, blood stages by flow cytometry, 10 mg/kg",4.3 days and 4.3 ± 1.1 days
same,pIC50,P. cynomolgi hypnozoite,6.40
same,pIC50,P. cynomolgi schizont,6.49
"C[C@H]1[C@@H](O)O[C@@H]2O[C@@]3(C)CC[C@H]4[C@H](C)CC[C@@H]1[C@@]24OO3 [DHA, dihydroartemisinin, reference compound]",pIC50,P. falciparum 3D7,8.70
same,pIC50,P. falciparum K1,8.70
same,pIC50,P. falciparum 7G8,9.30
same,pIC50,P. falciparum Dd2-B2,8.52
"COC(=O)c1cc(-c2[nH]c(C3CCN(C)CC3)cc2-c2ccncc2)ccc1F [RUPB-72, Methyl 2-fluoro-5-(5-(1-methylpiperidin-4-yl)-3-(pyridin-4-yl)-1H-pyrrol-2-yl)benzoate]",pIC50,"PfPKG; Table 7, spread in parentheses not defined",7.76
